In patent US12692233B2, “Anthelmintic compounds comprising a pyridine structure” (Intervet Inc., priority 2020, dated 2026) one finds EC50 and minimal effective concentration data, which are given here for 35 compounds.

Some results are limits rather than exact numbers.

One test relates to Dirofilaria immitis. The test can be described thus: In vitro assay Dirofilaria immitis L1 (microfilaria), motility. In kind it is cell-based. Particulars: 72 h, 3 days incubation, reduction in motility vs DMSO. The protocol: Approximately 500 D. immitis microfilaria were added to a microtiter plate containing a nutrient medium and the test compound in DMSO at varying concentrations. After incubation for 3 days, activity was evaluated as reduction in motility as compared to DMSO as negative control. Compounds were tested in duplicates. Based on the concentration response curves EC50 values were calculated.

Test [1] has as its system Oesophagostumum dentatum. The test can be described thus: In vitro assay Oesophagostumum dentatum larval stage 4. In kind it is cell-based. Particulars: larval stage 4, 20 larvae per well, microscopic examination; read-out: MEC (minimum effective concentration) against Oesophagostumum dentatum L4. The text has this:
(§1) […] galli (intestinal roundworm of chicken), larval stage 3 (“L3”); and Oesophagostumum dentatum (nodular worm of swine), larval stages 3 and 4 (respectively “L3” and “L4”) where suspended in a nutrient medium and distributed to 96 well plates with 20 larvae per well. The wells were spiked DMSO solutions of the compounds with declining concentration.

Test [2] deals with T1, human Maxi K channel (BK channel) (Homo sapiens, UniProt Q12791).
T1 construct: expressed in transfected cells; host or cells: CHO K1
As to the kind of experiment: Agonistic activity at the human Maxi K channel (BK channel), FLIPR membrane potential in CHO K1 cells. Particulars: CHO K1 cells stably transfected with KCNMA1 and beta1 (KCNMB1) subunits, membrane potential dye. In kind it is cell-based. The source says: A CHO K1 cell line was stably transfected with the KCNMA1 (KCa1.1, U11058) and beta1 (KCNMB1) subunits of the human Maxi K channel (Ponte et al, Molecular Pharmacology 2012, 81(4), 567-577).
The complete measurement takes 150 s.

The subject of another test is Ascaridia galli. As to the kind of experiment: In vitro assay Ascaridia galli larval stage 3. It is filed as cell-based. The conditions noted are these: larval stage 3, 20 larvae per well, microscopic examination, read-out: MEC (minimum effective concentration) against Ascaridia galli L3.
Excerpt: as §1

The subject of test [3] is Oesophagostumum dentatum. As to the kind of experiment: In vitro assay Oesophagostumum dentatum larval stage 3. It is filed as cell-based. The conditions noted are these: larval stage 3, 20 larvae per well, microscopic examination; read-out: MEC (minimum effective concentration) against Oesophagostumum dentatum L3.
Excerpt: as §1

In another test the target is C. elegans Slo-1a (Caenorhabditis elegans, UniProt Q95V25). As to the kind of experiment: Agonistic activity at C. elegans Slo-1a, FLIPR membrane potential in CHO K1 cells. Particulars: EC50 agonistic activity at C. elegans Slo-1a, CHO K1 cells stably transfected with slo-1a, membrane potential dye.
C. elegans Slo-1a, sequence (Q95V25 whole entry): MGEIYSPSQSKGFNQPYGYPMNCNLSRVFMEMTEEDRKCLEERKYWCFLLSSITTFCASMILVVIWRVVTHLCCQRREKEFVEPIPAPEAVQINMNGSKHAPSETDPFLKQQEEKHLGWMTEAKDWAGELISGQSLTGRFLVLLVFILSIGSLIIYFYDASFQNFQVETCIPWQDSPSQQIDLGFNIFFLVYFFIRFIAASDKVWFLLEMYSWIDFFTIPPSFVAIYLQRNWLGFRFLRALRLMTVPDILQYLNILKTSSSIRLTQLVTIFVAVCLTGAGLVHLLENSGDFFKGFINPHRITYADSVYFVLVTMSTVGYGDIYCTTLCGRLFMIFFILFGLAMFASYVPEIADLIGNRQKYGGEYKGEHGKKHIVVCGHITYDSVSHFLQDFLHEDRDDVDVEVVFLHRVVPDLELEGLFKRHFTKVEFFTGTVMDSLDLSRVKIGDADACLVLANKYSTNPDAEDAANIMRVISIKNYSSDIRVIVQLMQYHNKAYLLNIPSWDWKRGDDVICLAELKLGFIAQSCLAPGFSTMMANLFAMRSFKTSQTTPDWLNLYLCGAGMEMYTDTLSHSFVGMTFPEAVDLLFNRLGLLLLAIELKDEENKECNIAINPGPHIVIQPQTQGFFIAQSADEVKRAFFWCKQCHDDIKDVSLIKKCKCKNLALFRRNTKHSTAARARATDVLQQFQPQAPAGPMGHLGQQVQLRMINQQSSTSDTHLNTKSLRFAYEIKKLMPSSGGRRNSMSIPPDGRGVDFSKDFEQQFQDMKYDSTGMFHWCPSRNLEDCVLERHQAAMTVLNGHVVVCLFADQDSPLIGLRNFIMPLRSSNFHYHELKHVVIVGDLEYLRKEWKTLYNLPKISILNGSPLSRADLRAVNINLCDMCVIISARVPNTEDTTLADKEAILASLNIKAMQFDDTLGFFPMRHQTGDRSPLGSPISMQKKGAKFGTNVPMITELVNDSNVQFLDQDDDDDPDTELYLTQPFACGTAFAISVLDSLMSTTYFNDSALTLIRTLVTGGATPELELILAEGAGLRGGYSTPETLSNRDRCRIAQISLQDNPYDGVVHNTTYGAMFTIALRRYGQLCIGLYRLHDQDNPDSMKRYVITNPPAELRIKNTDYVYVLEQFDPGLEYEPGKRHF

T1 sequence (Q12791 1-1178 isoform Q12791-5): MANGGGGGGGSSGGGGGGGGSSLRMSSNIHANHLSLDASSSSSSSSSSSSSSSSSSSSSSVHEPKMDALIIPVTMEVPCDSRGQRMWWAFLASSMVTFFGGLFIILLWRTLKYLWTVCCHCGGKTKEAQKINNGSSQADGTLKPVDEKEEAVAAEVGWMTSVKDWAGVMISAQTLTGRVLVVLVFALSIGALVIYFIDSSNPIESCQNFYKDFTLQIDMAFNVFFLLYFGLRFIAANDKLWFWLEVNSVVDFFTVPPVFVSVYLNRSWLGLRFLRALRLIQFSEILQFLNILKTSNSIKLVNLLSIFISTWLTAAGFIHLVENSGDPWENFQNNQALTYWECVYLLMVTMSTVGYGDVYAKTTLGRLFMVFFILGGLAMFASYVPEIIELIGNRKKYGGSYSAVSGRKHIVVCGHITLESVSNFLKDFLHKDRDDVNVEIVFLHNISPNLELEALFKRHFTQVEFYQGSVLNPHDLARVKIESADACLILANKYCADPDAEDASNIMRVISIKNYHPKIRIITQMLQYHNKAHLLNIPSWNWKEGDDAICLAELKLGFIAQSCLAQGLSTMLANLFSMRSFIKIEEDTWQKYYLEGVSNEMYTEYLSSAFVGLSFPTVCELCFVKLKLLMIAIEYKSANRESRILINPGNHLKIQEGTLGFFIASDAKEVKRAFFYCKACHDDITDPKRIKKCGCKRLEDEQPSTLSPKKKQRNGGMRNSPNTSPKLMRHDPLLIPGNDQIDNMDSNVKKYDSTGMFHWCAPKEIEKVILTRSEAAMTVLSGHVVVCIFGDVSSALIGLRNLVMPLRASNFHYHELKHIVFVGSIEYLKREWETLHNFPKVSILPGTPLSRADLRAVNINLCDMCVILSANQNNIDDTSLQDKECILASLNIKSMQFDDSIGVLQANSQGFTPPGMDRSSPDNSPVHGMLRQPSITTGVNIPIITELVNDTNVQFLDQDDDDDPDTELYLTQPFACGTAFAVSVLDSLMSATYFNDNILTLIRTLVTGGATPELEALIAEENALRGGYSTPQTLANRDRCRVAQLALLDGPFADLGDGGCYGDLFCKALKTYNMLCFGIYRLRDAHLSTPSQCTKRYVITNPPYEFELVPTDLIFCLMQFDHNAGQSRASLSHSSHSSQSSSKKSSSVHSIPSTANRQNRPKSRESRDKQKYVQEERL
T1 sequence (Q16558 whole entry partner): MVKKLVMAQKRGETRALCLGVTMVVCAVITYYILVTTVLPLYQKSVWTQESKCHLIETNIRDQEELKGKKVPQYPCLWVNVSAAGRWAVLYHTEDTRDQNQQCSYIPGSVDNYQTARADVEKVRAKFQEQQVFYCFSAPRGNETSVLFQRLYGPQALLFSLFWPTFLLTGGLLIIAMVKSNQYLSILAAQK
Description for C. elegans Slo-1a: A CHO K1 cell line stably transfected with the Caenorhabditis elegans slo-1a (accession no Y51A2D.19a) was established. Cells were seeded in microtiter plates (black 384-well MTP, clear bottom) in a concentration of 10,000 cells/well in 25 μl medium and cultured for 20 to 24 hours at 37° C. and 5% CO2. After incubation, 25 μl of FMP-dye Blue-Tyrode's was added to each well and incubated at room temperature for 30 min. Ten minutes after addition of 12.5 μl compound solution, the plates are transferred to the FLIPR for measurement.
For the membrane potential measurements, the plates were placed in the FLIPR Penta (Molecular Devices). The baseline measurement of the fluorescence was stared for 20 sec (Exc. 510-545 nm, Emm. 565-625 nm). Potential channel opening measurement was started by addition of 25 μl of KCl-Tyrode (final assay concentration of the KCl-Tyrode: 70 mM KCl, 2 mM CaCl2, 1 mM MgCl2, 0.8 mM NaH2PO4, 5 mM Glucose, 28 mM Hepes, pH 7.4, including the voltage sensitive dye). The complete measurement takes 150 s.
EC50 values were determined in triplicate utilizing compound dilution series. The data were determined at least in two independent tests. The data were proceeded by using the ActivityBase XE Runner software (IDBS) for curve fitting and calculation of the half-maximal effective concentration.

Consider `CN(C)c1cc(Oc2cc(Cl)cc(Cl)c2)ncc1C(=O)N[C@@H]1CCOc2ccccc21` [Compound 29], for which the figures for the EC50 (with Dirofilaria immitis; in test [2]) were less than 10 µM and greater than 30 µM, respectively. The minimal effective concentration in the test with Oesophagostumum dentatum [1] and in the test with Ascaridia galli was no more than 50 µM in each case.

As for `COc1cc(Oc2cc(Cl)cc(Cl)c2)ncc1C(=O)N[C@H]1CCOc2ccccc21` [Compound 86], the minimal effective concentration in the test with Oesophagostumum dentatum [3] was no more than 50 µM. Further, the EC50 in test [2] is greater than 30 µM.

As for `O=C(N[C@H]1CCc2ccccc21)c1cnc(Nc2cc(Cl)cc(Cl)c2)cc1N1CCOCC1` [Compound 109], the minimal effective concentration with Oesophagostumum dentatum [3] and in the test with Ascaridia galli was no more than 50 µM throughout. Moreover, the EC50 in test [2] is 10 to 30 µM; at C. elegans Slo-1a, less than 10 µM.

As to `COc1cc(Sc2cccc(Cl)c2Cl)ncc1C(=O)N[C@H]1CCCc2ccccc21` [Compound 66], the minimal effective concentration with Oesophagostumum dentatum [3] and in the test on Oesophagostumum dentatum [1] was no more than 50 µM throughout. The concentration giving a half-maximal response (EC50) in test [2] was greater than 30 µM; at C. elegans Slo-1a, less than 10 µM.

In the case of `O=C(N[C@H]1CCOc2ccccc21)c1cnc(Cc2cc(Cl)cc(Cl)c2)cc1N1CCOCC1` [Compound 112], the minimal effective concentration in the test on Oesophagostumum dentatum [3] and in the test on Ascaridia galli was no more than 50 µM in each case. For the same compound, the EC50 in test [2] was greater than 30 µM; on C. elegans Slo-1a, less than 10 µM.

Turning to `O=C(N[C@H]1CCc2ccccc21)c1cnc(Sc2cccc(Cl)c2Cl)cc1N1CCOCC1` [Compound 23], the EC50 with Dirofilaria immitis was less than 10 µM; in test [2], greater than 30 µM; at C. elegans Slo-1a it was less than 1 µM. Also, in the test on Ascaridia galli, the minimal effective concentration is no more than 50 µM.

Take `O=C(N[C@H]1CCCc2ccccc21)c1cnc(Cc2cc(Cl)cc(Cl)c2)cc1N1CCOCC1` [Compound 113]: the minimal effective concentration with Oesophagostumum dentatum [3] was no more than 50 µM. Also, the figures for the EC50 (in test [2]; at C. elegans Slo-1a) were greater than 30 µM and less than 10 µM, respectively.

Regarding `CSc1cc(Sc2cccc(Cl)c2Cl)ncc1C(=O)N[C@H]1CCc2ccccc21` [Compound 53], in the test with Oesophagostumum dentatum [1], the minimal effective concentration is no more than 50 µM. Also, the concentration giving a half-maximal response (EC50) in test [2] is greater than 30 µM; on C. elegans Slo-1a it was less than 10 µM.

For `COc1cc(Sc2cccc(Cl)c2Cl)ncc1C(=O)N[C@H]1CCOc2ccccc21` [Compound 68], the minimal effective concentration in the test on Oesophagostumum dentatum [1] was no more than 50 µM. The concentration for a half-maximal effect (EC50) in test [2] is greater than 30 µM; at C. elegans Slo-1a, less than 10 µM.

With `CN(C)c1cc(Sc2cc(Cl)cc(Cl)c2)ncc1C(=O)Nc1cccc2ccccc12` [Compound 16], the minimal effective concentration in the test with Oesophagostumum dentatum [3] and with Ascaridia galli was no more than 50 µM throughout. For the same compound, the EC50 in test [2] is greater than 30 µM.

With `CN(C)c1cc(Cc2cc(Cl)cc(Cl)c2)ncc1C(=O)N[C@H]1CCCc2ccccc21` [Compound 111], the minimal effective concentration with Oesophagostumum dentatum [3] and in the test on Oesophagostumum dentatum [1] was no more than 50 µM in each case. This compound yielded a 50% effective concentration (EC50) in test [2] greater than 30 µM.

Turning to `COc1cc(Oc2cccc(Cl)c2Cl)ncc1C(=O)N[C@H]1CCCc2ccccc21` [Compound 96], the EC50 with Dirofilaria immitis was less than 10 µM; in test [2], greater than 30 µM. Further, in the test on Ascaridia galli, the minimal effective concentration was no more than 50 µM.

In the case of `CCOc1cc(Oc2cccc(Cl)c2Cl)ncc1C(=O)N[C@H]1CCOc2ccccc21` [Compound 92], the minimal effective concentration with Oesophagostumum dentatum [1] was no more than 50 µM. In addition, the concentration giving a half-maximal response (EC50) in test [2] was greater than 30 µM.

As for `CN(C)c1cc([S+]([O-])c2cc(Cl)cc(Cl)c2)ncc1C(=O)N[C@H]1CCCc2ccccc21` (stereo partly drawn) [Compound 101], the EC50 was less than 10 µM in the test on Dirofilaria immitis and greater than 30 µM in test [2]. Besides, the minimal effective concentration in the test on Oesophagostumum dentatum [3] was no more than 50 µM.

As for `CN(C)c1cc(S(=O)(=O)c2cc(Cl)cc(Cl)c2)ncc1C(=O)N[C@H]1CCCc2ccccc21` [Compound 102, (S)-6-((3,5-dichlorophenyl)sulfonyl)-4-(dimethylamino)-N-(1,2,3,4-tetrahydronaphthalen-1-yl)nicotinamide], the values for the EC50 (in the test on Dirofilaria immitis; in test [2]) were less than 10 µM and greater than 30 µM, respectively. For the same compound, the minimal effective concentration in the test with Oesophagostumum dentatum [1] is no more than 50 µM.

As to `CSc1cc(Oc2cc(Cl)cc(Cl)c2)ncc1C(=O)N[C@@H]1CCOc2ccccc21` [Compound 60], the minimal effective concentration in the test on Oesophagostumum dentatum [3] was no more than 50 µM. The same compound yielded an EC50 in test [2] greater than 30 µM.

Take `CCOc1cc(Sc2cc(Cl)cc(Cl)c2)ncc1C(=O)N[C@H]1CCCc2ccccc21` [Compound 99]: the minimal effective concentration in the test on Oesophagostumum dentatum [3] is no more than 50 µM. The same compound had a half-maximal effective concentration (EC50) in test [2] greater than 30 µM.

For the compound `CN(C)c1cc(S(=O)(=O)c2cc(Cl)cc(Cl)c2)ncc1C(=O)N[C@H]1CCOc2ccccc21` [Compound 100], the minimal effective concentration with Oesophagostumum dentatum [3] and with Ascaridia galli was no more than 50 µM throughout. The results for the EC50 (in test [2]; at C. elegans Slo-1a) were greater than 30 µM and less than 10 µM, respectively.

As to `O=C(Nc1cccc2ccccc12)c1cnc(Oc2cccc(Cl)c2Cl)cc1N1CCOCC1` [Compound 45], the EC50 was less than 10 µM in the test with Dirofilaria immitis and greater than 30 µM in test [2].

For `COc1cc(Sc2cc(Cl)cc(Cl)c2)ncc1C(=O)N[C@H]1CCOc2ccccc21` [Compound 83], the minimal effective concentration with Oesophagostumum dentatum [3] and in the test on Ascaridia galli was no more than 50 µM each time. In addition, the EC50 in test [2] was greater than 30 µM; on C. elegans Slo-1a it was less than 10 µM.

As to `CN(C)c1cc(Nc2cc(Cl)cc(Cl)c2)ncc1C(=O)N[C@H]1CCc2ccccc21` [Compound 116], the minimal effective concentration in the test on Oesophagostumum dentatum [3], in the test with Oesophagostumum dentatum [1] and with Ascaridia galli was no more than 50 µM in each case. For the same compound, the EC50 in test [2] is greater than 30 µM; at C. elegans Slo-1a, less than 10 µM.

Take `O=C(Nc1csc2ccccc12)c1cnc(Sc2cccc(Cl)c2Cl)cc1N1CCOCC1` [Compound 48]: the minimal effective concentration in the test with Oesophagostumum dentatum [1] and in the test with Ascaridia galli was no more than 50 µM throughout. In test [2], the EC50 is greater than 30 µM.

In the case of `CSc1cc(Oc2cccc(Cl)c2Cl)ncc1C(=O)N[C@H]1CCCc2ccccc21` [Compound 56], the EC50 is greater than 30 µM in test [2] and less than 10 µM on C. elegans Slo-1a. In the test on Ascaridia galli, the minimal effective concentration was no more than 50 µM.

Consider `CN(C)c1cc(Oc2cc(Cl)cc(Cl)c2)ncc1C(=O)N[C@H]1CCCc2ccccc21` [Compound 28], for which the figures for the EC50 (in test [2]; on C. elegans Slo-1a) were greater than 30 µM and less than 1 µM, respectively. In addition, in the test with Ascaridia galli, the minimal effective concentration was no more than 50 µM.

On to `CCSc1cc(Sc2cc(Cl)cc(Cl)c2)ncc1C(=O)N[C@H]1CCOc2ccccc21` [Compound 74], for which the minimal effective concentration in the test with Oesophagostumum dentatum [3] and in the test on Oesophagostumum dentatum [1] was no more than 50 µM in each case. In test [2], this compound displayed an EC50 greater than 30 µM.

In the case of `O=C(N[C@H]1CCCc2ccccc21)c1cnc(Nc2cc(Cl)cc(Cl)c2)cc1N1CCOCC1` [Compound 106], the EC50 in test [2] is greater than 30 µM; at C. elegans Slo-1a, less than 10 µM. Moreover, in the test on Ascaridia galli, the minimal effective concentration was no more than 50 µM.

Take `CN(C)c1cc(Oc2cc(Cl)cc(Cl)c2)ncc1C(=O)Nc1cccc2ccccc12` [Compound 32]: the values for the EC50 (with Dirofilaria immitis; in test [2]) were less than 10 µM and greater than 30 µM, respectively. The minimal effective concentration with Oesophagostumum dentatum [3] is no more than 50 µM.

Take `O=C(N[C@@H]1CCOc2ccccc21)c1cnc(Sc2cccc(Cl)c2Cl)cc1N1CCOCC1` [Compound 50]: the EC50 was less than 10 µM with Dirofilaria immitis and greater than 30 µM in test [2].

Turning to `CSc1cc(Oc2cccc(Cl)c2Cl)ncc1C(=O)N[C@H]1CCc2ccccc21` [Compound 58], the results for the EC50 (in test [2]; on C. elegans Slo-1a) were greater than 30 µM and less than 10 µM, respectively. For the same compound, in the test with Ascaridia galli, the minimal effective concentration is no more than 50 µM.

On to `COc1cc(Oc2cc(Cl)cc(Cl)c2)ncc1C(=O)N[C@H]1CCCc2ccccc21` [Compound 85], for which the EC50 in the test on Dirofilaria immitis was less than 10 µM; in test [2] it was greater than 30 µM. Also, the minimal effective concentration in the test with Oesophagostumum dentatum [3] and in the test on Ascaridia galli was no more than 50 µM in each case.

As to `O=C(N[C@H]1CCc2ccccc21)c1cnc(Cc2cc(Cl)cc(Cl)c2)cc1N1CCOCC1` [Compound 117], the minimal effective concentration in the test on Oesophagostumum dentatum [3], with Oesophagostumum dentatum [1] and in the test with Ascaridia galli was no more than 50 µM each time. On C. elegans Slo-1a, the EC50 is less than 10 µM.

Regarding `CN(C)c1cc(Nc2cc(Cl)cc(Cl)c2)ncc1C(=O)N[C@H]1CCOc2ccccc21` [Compound 115], the minimal effective concentration in the test on Oesophagostumum dentatum [3] and with Ascaridia galli was no more than 50 µM each time. Also, the concentration for a half-maximal effect (EC50) in test [2] was greater than 30 µM; at C. elegans Slo-1a it was less than 10 µM.

Regarding `CN(C)c1cc(Cc2cc(Cl)cc(Cl)c2)ncc1C(=O)N[C@H]1CCc2ccccc21` [Compound 110], the minimal effective concentration in the test on Oesophagostumum dentatum [3] and in the test on Oesophagostumum dentatum [1] was no more than 50 µM throughout. For the same compound, the half-maximal effective concentration (EC50) in test [2] is greater than 30 µM.

Consider `CN(C)c1cc(Sc2cc(Cl)cc(Cl)c2)ncc1C(=O)N[C@H]1CCCc2ccccc21` [Compound 14], for which the EC50 is greater than 30 µM in test [2] and less than 10 µM at C. elegans Slo-1a. In the test on Ascaridia galli, the minimal effective concentration is no more than 50 µM.

As to `CCSc1cc(Sc2cccc(Cl)c2Cl)ncc1C(=O)N[C@H]1CCCc2ccccc21` [Compound 62], the minimal effective concentration in the test with Oesophagostumum dentatum [3] and with Ascaridia galli was no more than 50 µM each time. Further, the EC50 in test [2] was greater than 30 µM.

The term EC50 denotes the concentration at which the effect is half-maximal. Higher therefore signals lower potency in that assay.
